The structures appear in SMILES notation. Where “and” joins values, the source holds several entries; their conditions need not be identical. Identical values can stand only once.

The series deals with EpiSkin (reconstructed human epidermis). In words: In vitro dermal irritation EpiSkin test (MTT viability). As for the experimental part: The SkinEthic EpiSkin® test system has been validated by OECD test method (439) as an in vitro model to assess skin irritation potential. The test uses human keratinocytes derived from healthy donors, grown in vitro to reconstruct a functional model of the human epidermis.
EpiSkin® units were shipped on transport agar in sterile plates of 12 individual units. Upon delivery, the condition of the EpiSkin® was assessed by checking the pH and temperature indicators. EpiSkin® units were transferred to 12 well plates containing EpiSkin® maintenance medium (2 mL). […] The negative control was Dulbecco's phosphate buffered saline (PBS) and the positive control was an aqueous solution of sodium dodecyl sulphate (SDS, 5%, w/v).
The formulations were applied to the skin “without dilution”. An aliquot (10 μL) of the undiluted formulations and control substances were applied to three replicate EpiSkin® tissues using a positive displacement pipette. The formulations and controls were gently spread over the entire surface of the exposed skin using the applicator tip.
The EpiSkin® was exposed to the formulations and control substances for 15 min±30 s. The EpiSkin® surface was then rinsed with PBS (ca 25 mL) and returned to a well containing fresh Maintenance Medium (2 mL). […]
After the recovery period, EpiSkin® units were tapped dry and transferred to wells containing a solution of MTT in EpiSkin Assay Medium (2 mL, 0.3 mg/mL). […] The cell viability of each tissue was calculated from optical density absorption readings with reference to the negative controls, which were assigned the nominal value of 100% viability.
Standard statistical techniques were used to calculate ODblank mean: the average OD of the blank (acidified isopropanol containing) wells. The corrected OD for each sample or control was calculated by subtracting the value of ODblank mean from each reading: ODcorrected=ODraw−ODblank mean
The % Viability for each sample and positive control was calculated as follows: % Viability=(ODcorrected/mean ODnegative controls)×100 […]

Consider `CCCCCCCCCCCCOS(=O)(=O)[O-].[Na+]` [Aqueous SDS Solution (5%, w/v), sodium dodecyl sulphate], for which the “Mean Relative Viability per Treatment (%)” value (mean of three tissues, irritant (GHS category 2) if viability is 50% or less) is reported as 23.36%. In addition, the “Mean Relative Viability per Tissue (%)” value (per replicate tissue (Rep 1-3), 15 min exposure, 42 h recovery, sulphate) is 19.00% and 36.63% and 14.46%. Also, the “Relative Viability (%)” value (single readings, two per replicate tissue (Rep 1-3), 10 μL undiluted, 15 min exposure, 42 h recovery, negative control = 100%, sulphate) was 19.05% and 18.95% and 36.18% and 37.08% and 13.81% and 15.12%.
